Read-outs that look alike come from different tables or passages of the source. Blank lines part the entries; values can stand above or below the molecule they belong to.
Legend:
[1] = tested on: MCF-7 (breast carcinoma) cell line; test: MTT cytotoxic assay, MCF-7; type: cell-based; details: for IC50: MTT, 72 h, 3 repetitions, read-out: IC50 ± SD MCF-7
Experimental: The antiproliferative activity of all the synthesized compounds (8a-8 h) was done by MTT (standard 3-(4,5-dimethylthiazol-yl)-2,5-diphenyl-tetrazolium bromide) assay according to our previous protocols. MCF-7 (breast carcinoma) and SW480 (Colorectal carcinoma) cell lines were choose and purchased from the National Cell Bank of Iran (NCBI, Pasteur Institute, Tehran, Iran). RPMI 1640 culture media with 10% fetal bovine serum (FBS) and 1% penicillin-streptomycin (Gibco, USA) were applied as culture. Trypsin/EDTA 0.5% solution (Gibco/USA) was used to harvest cells and then, the cells were seeded at a density of 1 × 10^4 cells per well in 96-well microplates. […] Three untreated wells were applied as the negative control. After 72 h, the media was changed by 100 µL fresh MTT solution and incubated for 4 h at 37 °C in the incubator to achieve formazan purple crystals. Finally, the media was removed and 150 µL of DMSO was added and incubated at 37 °C in the dark for 10 min to dissolve the crystals. A Microplate ELISA reader was applied to read the absorbance of individual wells at 490 nm. Analysis of the data was obtained by Excel 2016 and Curve Expert 1.4. The data was expressed as the mean ± SD for each analysis. GraphPad Prism software was used to perform one-way ANOVA statistical analyses, followed by Tukey’s multiple comparison test.

MRC-5 normal cell line = test: MTT cytotoxic assay, normal cell line MRC-5; type: cell-based; details: read-out: IC50 ± SD MRC-5
[2] = tested on: SW480 (Colorectal carcinoma) cell line; test: MTT cytotoxic assay, SW480; type: cell-based; details: Homo sapiens, 72 h, 3 repetitions, read-out: IC50 ± SD SW480
Experimental: The antiproliferative activity of all the synthesized compounds (8a-8 h) was done by MTT (standard 3-(4,5-dimethylthiazol-yl)-2,5-diphenyl-tetrazolium bromide) assay according to our previous protocols. MCF-7 (breast carcinoma) and SW480 (Colorectal carcinoma) cell lines were choose and purchased from the National Cell Bank of Iran (NCBI, Pasteur Institute, Tehran, Iran). RPMI 1640 culture media with 10% fetal bovine serum (FBS) and 1% penicillin-streptomycin (Gibco, USA) were applied as culture. Trypsin/EDTA 0.5% solution (Gibco/USA) was used to harvest cells and then, the cells were seeded at a density of 1 × 10^4 cells per well in 96-well microplates. Five different concentrations of the derivatives and Cisplatin as the positive control (1 to 200 µM) were used for treatment in triplicate times. Three untreated wells were applied as the negative control. After 72 h, the media was changed by 100 µL fresh MTT solution and incubated for 4 h at 37 °C in the incubator to achieve formazan purple crystals. Finally, the media was removed and 150 µL of DMSO was added and incubated at 37 °C in the dark for 10 min to dissolve the crystals. A Microplate ELISA reader was applied to read the absorbance of individual wells at 490 nm. Analysis of the data was obtained by Excel 2016 and Curve Expert 1.4. The data was expressed as the mean ± SD for each analysis. GraphPad Prism software was used to perform one-way ANOVA statistical analyses, followed by Tukey’s multiple comparison test.

[3] = Homo sapiens, MRC5, 3 repetitions

melting point: 140 to 142 °C
SMILES: O=c1c2cc(Br)ccc2nc(SCc2ccccc2)n1-c1ccccc1 [8c, 2-(benzylthio)-6-bromo-3-phenylquinazolin-4(3 H )-one]
IC50 ([1]; Homo sapiens, MCF7): 142 ± 3.95 µM | IC50 (MRC-5 normal cell line; [3]): > 100 µM | IC50 [2]: 170.1 ± 1.34 µM

melting point: 164 to 166 °C
SMILES: Cc1ccc(CSc2nc3ccc(Br)cc3c(=O)n2-c2ccccc2)cc1 [8e, 6-bromo-2-((4-methylbenzyl)thio)-3-phenylquinazolin-4(3 H )-one]
IC50 ([1]; Homo sapiens, MCF7): 35.1 ± 3.02 µM | IC50 (MRC-5 normal cell line; [3]): > 100 µM | IC50 [2]: 63.1 ± 1.63 µM

melting point: 101 to 103 °C
SMILES: Cc1cccc(CSc2nc3ccc(Br)cc3c(=O)n2-c2ccccc2)c1 [8d, 6-bromo-2-((3-methylbenzyl)thio)-3-phenylquinazolin-4(3 H )-one]
IC50 ([1]; Homo sapiens, MCF7): 59.1 ± 3.73 µM | IC50 (MRC-5 normal cell line; [3]): > 100 µM | IC50 [2]: 72.5 ± 2.9 µM

melting point: 145 to 147 °C
SMILES: O=c1c2cc(Br)ccc2nc(SCc2ccc(Cl)cc2)n1-c1ccccc1 [8f, 6-bromo-2-((4-chlorobenzyl)thio)-3-phenylquinazolin-4(3 H )-one]
IC50 ([1]; Homo sapiens, MCF7): 52.5 ± 2.92 µM | IC50 (MRC-5 normal cell line; [3]): > 100 µM | IC50 [2]: 72.2 ± 1.41 µM

The remaining lines, values behind:

SMILES: O=c1c2cc(Br)ccc2nc(SCc2ccc(Br)cc2)n1-c1ccccc1 [8g, 6-bromo-2-((4-bromobenzyl)thio)-3-phenylquinazolin-4(3 H )-one]
IC50 ([1]; Homo sapiens, MCF7): 62.4 ± 3.32 µM | IC50 (MRC-5 normal cell line; [3]): > 100 µM | IC50 [2]: 68.4 ± 2.62 µM | melting point: 175 to 177 °C

SMILES: COc1cccc2c1C(=O)c1c(O)c3c(c(O)c1C2=O)C[C@@](O)(C(=O)CO)C[C@@H]3O[C@H]1C[C@H](N)[C@H](O)[C@H](C)O1 [Doxorubicin, reference compound]
IC50 ([1]; Homo sapiens, MCF7): 2.5 ± 0.64 µM | IC50 (MRC-5 normal cell line; [3]): 0.52 ± 0.07 µM | IC50 [2]: 3.67 ± 0.24 µM

SMILES: CCCCSc1nc2ccc(Br)cc2c(=O)n1-c1ccccc1 [8a, 6-bromo-2-(butylthio)-3-phenylquinazolin-4(3 H )-one]
IC50 ([1]; Homo sapiens, MCF7): 15.8 ± 1.48 µM | times more potent than Erlotinib in MCF-7 cell line ([1]; cytotoxic activity compared with Erlotinib): about 2 times | IC50 (MRC-5 normal cell line; [3]): 84.2 ± 1.72 µM | IC50 [2]: 17.9 ± 0.92 µM | melting point: 128 to 130 °C

SMILES: CCCCCSc1nc2ccc(Br)cc2c(=O)n1-c1ccccc1 [8b, 6-bromo-2-(pentylthio)-3-phenylquinazolin-4(3 H )-one]
IC50 ([1]; Homo sapiens, MCF7): 18.2 ± 2.01 µM | IC50 (MRC-5 normal cell line; [3]): 76.4 ± 2.62 µM | IC50 [2]: 56.5 ± 2.83 µM | melting point: 99 to 101 °C

SMILES: C#Cc1cccc(Nc2ncnc3cc(OCCOC)c(OCCOC)cc23)c1 [Erlotinib, reference compound]
IC50 (MRC-5 normal cell line; [3]): 22.9 ± 3.1 µM | IC50 [2]: 11.2 ± 0.38 µM

SMILES: O=c1c2cc(Br)ccc2nc(SCc2ccc([N+](=O)[O-])cc2)n1-c1ccccc1 [8h, 6-bromo-2-((4-nitrobenzyl)thio)-3-phenylquinazolin-4(3 H )-one]
IC50 ([1]; Homo sapiens, MCF7): 73.4 ± 3.09 µM | IC50 (MRC-5 normal cell line; [3]): > 100 µM | IC50 [2]: 65.4 ± 2.8 µM | melting point: 231 to 233 °C

SMILES: N.N.[Cl][Pt][Cl] [Cisplatin, reference compound]
IC50 [1]: 9.9 ± 0.14 µM | IC50 (MRC-5 normal cell line; 3 repetitions): 45.2 ± 2.5 µM
